Measurements from patent US20230181564A1, “Potent Tetrahydroquinolone Eliminates Apicomplexan Parasites” (The University of Chicago, priority 2020, published 2023).

System: T. gondii RH-YFP tachyzoites
Test: Synergy studies with RH strain YFP tachyzoites
Format: cell-based, Toxoplasma gondii
Description: Synergy studies with RH strain YFP Tachyzoites. Atovaquone and pyrimethamine were used to test whether they are synergistic with JAG21. Serial dilutions of the combination of JAG21 and either atovaquone or pyrimethamine were used in an in vitro challenge assay as described above. The EC50 of each compound and the combination of two compounds were determined. The effect of the combination of drugs was calculated with the following formula: C=[A]c/[A]a+[B]c/[B]a. If C is lower than 1, the two compounds tested have synergistic effect; if C is greater than 1, the two compounds tested have antagonist effect and if C is 1 they are additive.

Cc1[nH]c2c(c(=O)c1-c1ccc(Oc3ccc(OC(F)(F)F)cc3)cc1)CCCC2 [JAG021, 2-methyl-3-(4-(4-(trifluoromethoxy)phenoxy)phenyl)-5,6,7,8-tetrahydroquinolin-4-one]
Combination with atovaquone against RH strain tachyzoites (isobologram): synergy | Combination with pyrimethamine against RH strain tachyzoites (no synergy): no antagonism
